# ChEMBL document CHEMBL1201862, “PubChem BioAssay data set” (2004)
# Activity calls are given as the source filed them.
# Tests used:
# HEK293 [1] = test: inhibition of NOD1-driven NF-kB reporter – cell-based, luminescence, uHTS, primary screen (AID 1578); format: functional; details: Homo sapiens
# Streptokinase A = target: T1, Streptokinase A (Streptococcus pyogenes serotype M1, UniProt P10520); test: viability-normalized secreted streptokinase activity reduction – plasminogen activation absorbance, OD405, dose response (AID 1914); format: functional, Streptococcus pyogenes M1 GAS;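 further: secreted streptokinase activity via plasminogen activation per viability signal from cell pellet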
# T1 sequence (P10520 whole entry): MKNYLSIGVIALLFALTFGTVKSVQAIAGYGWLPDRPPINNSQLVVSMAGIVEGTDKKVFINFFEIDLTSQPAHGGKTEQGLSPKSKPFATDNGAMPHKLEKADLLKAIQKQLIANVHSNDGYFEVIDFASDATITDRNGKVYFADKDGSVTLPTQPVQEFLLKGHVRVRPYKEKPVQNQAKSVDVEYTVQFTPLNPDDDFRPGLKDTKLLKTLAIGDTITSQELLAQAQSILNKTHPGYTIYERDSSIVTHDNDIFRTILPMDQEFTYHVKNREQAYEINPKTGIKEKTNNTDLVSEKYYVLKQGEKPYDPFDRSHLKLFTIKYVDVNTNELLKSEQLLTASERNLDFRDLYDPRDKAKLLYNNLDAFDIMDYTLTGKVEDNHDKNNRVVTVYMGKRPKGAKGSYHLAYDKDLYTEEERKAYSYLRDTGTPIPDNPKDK
# HEK293 [2] = test: NOD2 signaling inhibitors in MDP-stimulated cells, cell-based, uHTS, luminescence (AID 2001); format: functional; details: Homo sapiens
# [3] = test system: Streptococcus sp. 'group A'; test: Streptococcus pyogenes SK(-)GAS viability under kanamycin – luminescence, BacTiterGlo, confirmation, counter-screen for streptokinase expression inhibitor project, dose response (AID 1900); format: functional, organism-based
# Streptococcus = test: GAS UMAA2166 growth inhibition – luminescence, BacTiterGlo, counter-screen for streptokinase expression inhibitor project, dose response (AID 1915); format: functional, organism-based;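 further: potency for reduction of bacterial viability or growth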
# HEK293 [4] = test: cells; format: functional, cell-based; details: Homo sapiens
# HEK293 [5] = test: cells; format: functional, cell-based; details: Homo sapiens; remark: listed apart in the source
# [6] = HEK-293T viability loss after treatment – luminescence, T-cell screen hits, cytotoxicity control for TCR NF-kB inhibitor project, dose response (AID 489026); format: functional, cell-based;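 further: cells exposed to compound about 14 hours before the viability readout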
# [7] = target: T2, Sentrin-specific protease 7 (Homo sapiens, UniProt Q9BQF6); format: functional;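 further: Luminescence-based dose-response confirmation of ultra-high-throughput screening hits, measuring inhibition of SENP7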
# T2 sequence (Q9BQF6 whole entry): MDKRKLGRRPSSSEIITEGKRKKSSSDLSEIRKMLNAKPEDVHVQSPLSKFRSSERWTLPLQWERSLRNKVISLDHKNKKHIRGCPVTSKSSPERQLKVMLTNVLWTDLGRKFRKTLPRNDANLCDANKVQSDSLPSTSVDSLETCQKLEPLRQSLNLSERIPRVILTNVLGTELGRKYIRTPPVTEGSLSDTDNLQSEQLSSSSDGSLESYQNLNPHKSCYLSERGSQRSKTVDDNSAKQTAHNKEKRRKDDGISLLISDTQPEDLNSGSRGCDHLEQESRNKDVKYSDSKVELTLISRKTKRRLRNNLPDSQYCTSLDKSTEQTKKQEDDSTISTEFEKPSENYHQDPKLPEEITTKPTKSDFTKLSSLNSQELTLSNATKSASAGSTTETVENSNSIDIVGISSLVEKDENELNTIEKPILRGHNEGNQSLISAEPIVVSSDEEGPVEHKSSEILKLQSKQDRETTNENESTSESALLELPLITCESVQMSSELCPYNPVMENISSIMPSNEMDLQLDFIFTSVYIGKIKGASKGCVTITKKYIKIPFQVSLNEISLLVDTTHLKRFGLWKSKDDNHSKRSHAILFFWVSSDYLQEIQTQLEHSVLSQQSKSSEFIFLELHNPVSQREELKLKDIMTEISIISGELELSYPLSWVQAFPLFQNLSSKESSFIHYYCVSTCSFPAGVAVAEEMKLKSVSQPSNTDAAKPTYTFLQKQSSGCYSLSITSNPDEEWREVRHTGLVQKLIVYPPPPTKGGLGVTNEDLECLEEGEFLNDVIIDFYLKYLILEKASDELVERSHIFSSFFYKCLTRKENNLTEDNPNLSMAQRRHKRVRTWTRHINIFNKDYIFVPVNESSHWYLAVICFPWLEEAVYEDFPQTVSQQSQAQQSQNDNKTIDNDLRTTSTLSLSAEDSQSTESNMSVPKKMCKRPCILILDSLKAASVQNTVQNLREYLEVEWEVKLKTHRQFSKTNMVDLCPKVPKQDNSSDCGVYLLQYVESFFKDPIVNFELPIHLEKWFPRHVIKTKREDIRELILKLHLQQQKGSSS
# [8] = target: T3, Sentrin-specific protease 8 (Homo sapiens, UniProt Q96LD8); format: functional;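 further: luminescence read-out of SENP8 inhibition, dose-response confirmation following an ultra-high-throughput screen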
# T3 sequence (Q96LD8 whole entry): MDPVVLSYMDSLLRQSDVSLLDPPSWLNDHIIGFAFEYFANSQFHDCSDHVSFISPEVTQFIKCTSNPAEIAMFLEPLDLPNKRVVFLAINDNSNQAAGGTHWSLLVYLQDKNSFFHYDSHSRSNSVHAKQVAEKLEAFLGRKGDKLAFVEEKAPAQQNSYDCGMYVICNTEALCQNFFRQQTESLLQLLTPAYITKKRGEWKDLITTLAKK
# [9] = target: T4, Sentrin-specific protease 6 (Homo sapiens, UniProt Q9GZR1); format: functional;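 further: Luminescence-based dose-response confirmatory assay of SENP6 inhibition, following up an ultra-high-throughput screen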
# T4 sequence (Q9GZR1 whole entry): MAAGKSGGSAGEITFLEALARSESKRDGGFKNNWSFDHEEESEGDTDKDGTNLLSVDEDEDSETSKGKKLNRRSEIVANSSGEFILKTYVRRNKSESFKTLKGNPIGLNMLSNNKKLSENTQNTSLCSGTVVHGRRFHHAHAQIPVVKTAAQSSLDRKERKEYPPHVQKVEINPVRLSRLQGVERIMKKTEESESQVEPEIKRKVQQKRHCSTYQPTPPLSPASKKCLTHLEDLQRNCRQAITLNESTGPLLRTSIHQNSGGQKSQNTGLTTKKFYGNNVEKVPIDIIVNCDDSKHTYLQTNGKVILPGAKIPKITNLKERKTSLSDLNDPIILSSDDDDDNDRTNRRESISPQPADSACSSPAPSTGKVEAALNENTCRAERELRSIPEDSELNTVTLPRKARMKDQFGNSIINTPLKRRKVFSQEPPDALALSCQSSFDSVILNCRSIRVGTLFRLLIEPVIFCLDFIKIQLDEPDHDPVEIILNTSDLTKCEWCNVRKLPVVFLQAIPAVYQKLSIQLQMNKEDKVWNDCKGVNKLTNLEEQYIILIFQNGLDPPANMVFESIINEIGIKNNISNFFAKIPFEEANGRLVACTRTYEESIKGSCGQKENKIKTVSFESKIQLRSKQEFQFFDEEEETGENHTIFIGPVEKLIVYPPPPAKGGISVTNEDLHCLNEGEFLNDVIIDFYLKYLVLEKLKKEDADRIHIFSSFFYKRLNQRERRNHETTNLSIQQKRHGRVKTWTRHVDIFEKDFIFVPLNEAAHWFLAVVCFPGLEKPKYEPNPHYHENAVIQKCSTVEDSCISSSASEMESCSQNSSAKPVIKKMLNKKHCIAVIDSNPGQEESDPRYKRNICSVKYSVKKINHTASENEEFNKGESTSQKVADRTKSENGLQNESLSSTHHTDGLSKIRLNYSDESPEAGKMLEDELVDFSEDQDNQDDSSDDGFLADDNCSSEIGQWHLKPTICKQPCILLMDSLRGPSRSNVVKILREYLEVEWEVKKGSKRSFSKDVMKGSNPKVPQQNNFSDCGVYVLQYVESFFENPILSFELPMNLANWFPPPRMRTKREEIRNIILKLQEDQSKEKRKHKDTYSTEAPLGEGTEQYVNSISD
# Caspase-3 = target: T5, Caspase-3 (Homo sapiens, UniProt P42574); format: functional;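 further: Dose-response selectivity test against caspase-3 for candidate inhibitors of sentrin-specific proteases (SENPs)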
# T5 sequence (P42574 whole entry): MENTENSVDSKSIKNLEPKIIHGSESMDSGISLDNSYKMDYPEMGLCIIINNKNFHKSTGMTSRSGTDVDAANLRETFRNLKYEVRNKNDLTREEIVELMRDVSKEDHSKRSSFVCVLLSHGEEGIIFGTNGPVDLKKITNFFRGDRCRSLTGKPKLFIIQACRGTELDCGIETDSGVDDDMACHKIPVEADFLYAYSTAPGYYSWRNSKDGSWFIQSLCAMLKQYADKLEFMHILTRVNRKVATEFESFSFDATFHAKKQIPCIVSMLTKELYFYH
# [10] = loss of viability in HepG2 cells – cell-based, CellTiter-Glo, cherry-picked, cytotoxicity control for Shn3 inhibitor project, dose response (AID 624134); format: functional
# [11] = non-specific 3'UTR reporter inhibition in Clone20-Shn3RL – cell-based, Renilla luciferase, cherry-picked, counter-screen for Shn3 inhibitor project, dose response (AID 624133); format: functional
# [12] = reduction of Shn3 3'UTR-driven luciferase in osteoblasts – cell-based, Clone20 osteoblasts, firefly luciferase, cherry-picked, dose response (AID 624132); format: functional;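 further: firefly luciferase luminescence from reporter carrying the Shn3 3'UTR in osteoblasts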
# [13] = NIH-3T3 fibroblast cytotoxicity, dose response, cytotoxicity control, cell-based, fluorescence, Alamar Blue, secondary assay (AID 2327); format: functional;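 further: NIH-3T3 mouse fibroblasts cultured with fluconazole at 8 µg/mL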
# [14] = fluconazole-exposed Candida albicans growth modulators – fluorescence, retest, confirmation (AID 2467); format: functional, cell-based
# Cytochrome P450 2C9 = Cytochrome P450 2C9 (Homo sapiens, UniProt P11712)
# Cytochrome P450 2C9, sequence (P11712 whole entry): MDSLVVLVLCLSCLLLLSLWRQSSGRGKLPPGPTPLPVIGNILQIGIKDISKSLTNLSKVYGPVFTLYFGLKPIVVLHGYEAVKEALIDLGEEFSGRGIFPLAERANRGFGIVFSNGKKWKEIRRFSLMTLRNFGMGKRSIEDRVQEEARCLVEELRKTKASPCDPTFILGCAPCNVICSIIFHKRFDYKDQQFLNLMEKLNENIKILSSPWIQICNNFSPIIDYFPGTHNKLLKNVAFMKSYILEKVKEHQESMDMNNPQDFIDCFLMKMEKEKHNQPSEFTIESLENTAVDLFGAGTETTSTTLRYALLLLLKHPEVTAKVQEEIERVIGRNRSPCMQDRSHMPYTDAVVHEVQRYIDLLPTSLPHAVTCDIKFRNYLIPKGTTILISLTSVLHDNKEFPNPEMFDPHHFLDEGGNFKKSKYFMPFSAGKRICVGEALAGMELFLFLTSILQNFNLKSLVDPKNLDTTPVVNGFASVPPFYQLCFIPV
# Cytochrome P450 2C19 = Cytochrome P450 2C19 (Homo sapiens, UniProt P33261); test: Cytochrome panel assay with activity outcomes. Panel member name: p450-cyp2c19 Compounds with AC50 equal or less than 10 uM are considered active; format: functional; details: read-out: AC50
# Cytochrome P450 2C19, sequence (P33261 whole entry): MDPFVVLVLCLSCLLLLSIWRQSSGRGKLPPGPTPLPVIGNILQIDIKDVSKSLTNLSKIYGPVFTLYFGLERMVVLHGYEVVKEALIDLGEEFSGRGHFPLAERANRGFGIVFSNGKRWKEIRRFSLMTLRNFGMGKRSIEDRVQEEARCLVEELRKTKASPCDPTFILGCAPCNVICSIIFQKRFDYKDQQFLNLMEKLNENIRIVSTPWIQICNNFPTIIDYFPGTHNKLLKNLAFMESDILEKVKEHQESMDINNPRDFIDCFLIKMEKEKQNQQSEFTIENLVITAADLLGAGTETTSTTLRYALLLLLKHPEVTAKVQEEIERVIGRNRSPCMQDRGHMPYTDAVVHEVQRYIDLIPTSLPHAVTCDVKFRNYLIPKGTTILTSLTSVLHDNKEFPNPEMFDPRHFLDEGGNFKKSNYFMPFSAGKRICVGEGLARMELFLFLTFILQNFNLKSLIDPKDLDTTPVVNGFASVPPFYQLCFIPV
# [15] = alpha-synuclein stem-loop luciferase translation blockers – H4 neuroglioma cells, luminescence, confirmation (AID 1988); format: functional, cell-based
# [16] = Luminescence Cell-Based Dose Response HTS to Identify Inhibitors of 5'UTR Stem-Loop Driven Prion Protein mRNA Translation in H4 Neuroglioblastoma Cells. [Related pubchem assays: 1827 (Project Summary), 1813 (Primary HTS)]; format: functional
# [17] = luciferase reporter signal suppression in cells – H4 neuroglioma cells, luminescence, dose response (AID 1990); format: functional, cell-based
# Vero = test: cells; format: functional; details: Chlorocebus sabaeus
# [18] = viability of HCT116 lacking mutant beta-catenin – cell-based, human colon tumor, dose response (AID 1045); format: functional;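 further: HCT116 colon tumor cells with beta catenin knocked out; cells exposed to compound for 60 hours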
# [19] = viability of PTEN-deleted HCT116 cells – cell-based, HCT116 PTEN knockout, dose response (AID 1047); format: functional;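 further: HCT116 colon tumor cells with PTEN knocked out; cells exposed to compound for 60 hours before readout; potency for loss of cell viability measured by luminescence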
# cells = format: functional
compound,measurement,setting,value
Cn1c(O)c(N=NC(S)=Nc2ccccc2F)c2cc(S(=O)(=O)N3CCOCC3)ccc21,EC50,HEK293 [1],> 20 µM (inactive)
same,EC50,Streptokinase A,> 150 µM (not active)
same,IC50,HEK293 [2],9.77 µM (active)
same,EC50,[3],7.47 µM (active)
same,EC50,Streptococcus,44.2 µM (active)
same,IC50,HEK293 [4],> 20 µM (inactive)
same,IC50,HEK293 [5],19.1 µM (active)
CCOc1ccccc1C1CC(=O)Nc2cc3c(cc21)OCO3 (stereo unspecified),IC50,[6],> 80 µM (inactive)
O=c1c2ccccc2nnn1COc1cccc(Cl)c1,IC50,[7],6.41 µM (active)
same,IC50,[8],6.62 µM (active)
same,IC50,[9],34 µM (active)
same,IC50,Caspase-3,16.1 µM (active)
CCc1c(C)nc2ncnn2c1NCCc1ccc(Cl)cc1,AC50,[10],60.2 µM (active)
same,AC50,[11],3.82 µM (active)
same,AC50,[12],2.17 µM (active)
Cc1ccc(C)c(SCC(=O)Nc2nnc(-c3ccccc3)o2)c1,EC50,[13],> 150 µM (inactive)
same,EC50,[14],2.1 µM (active)
COc1cccc(/C=C2\CCC(C3CCCC3)C2=O)c1 (stereo unspecified),IC50,[7],11.8 µM (active)
same,IC50,[8],33.4 µM (active)
same,IC50,[9],25.5 µM (active)
same,IC50,Caspase-3,27.3 µM (active)
COc1ccc([C@H]2CC(=O)C=C(c3c(OC)cccc3OC)C2)cc1,IC50,[6],> 80 µM (inactive)
Cc1cccc(CNc2cc(-c3cccc(NS(C)(=O)=O)c3)ncn2)c1,AC50,Cytochrome P450 2C9,inconclusive
CC(=O)Nc1ccc(C#Cc2ccc(NC(C)=O)cc2)cc1,AC50,Cytochrome P450 2C19,0.00631 µM (inconclusive)
same,EC50,Streptokinase A,> 150 µM (not active)
same,EC50,[3],0.953 µM (active)
same,EC50,[15],8.38 µM (active)
same,EC50,Streptococcus,9.38 µM (active)
same,AC50,Cytochrome P450 2C9,inconclusive
same,EC50,[16],10.5 µM (active)
same,EC50,[17],16.5 µM (active)
COc1cccc(OC)c1C1=NCC(=O)Nc2c1oc1ccc(Br)cc21,IC50,[6],71.8 µM (inactive)
same,EC50,[15],0.267 µM (active)
same,EC50,[16],0.566 µM (active)
same,EC50,[17],0.752 µM (active)
O=C(CC1(O)C(=O)N(Cc2cccc3ccccc23)c2ccccc21)c1cccnc1 (stereo unspecified),CC50,Vero,> 25 µM (active)
Cc1ccc(NS(=O)(=O)c2ccc(CCC(=O)NCCO)cc2)cc1,EC50,[13],> 150 µM (inactive)
same,EC50,[14],> 38 µM (not active)
Cc1cccc(Nc2nnc(SCC(=O)NC(=O)Nc3ccc4c(c3)OCCO4)s2)c1,EC50,[18],9.93 µM (active)
same,CC50,Vero,> 25 µM (active)
same,EC50,[19],13 µM (active)
CN(Cc1ccco1)c1cc(-c2cccc(C#N)c2)ncn1,AC50,Cytochrome P450 2C9,inconclusive
COc1ccc(OC(=O)c2cc3ccccc3o2)cc1,IC50,[7],5.34 µM (active)
same,IC50,[8],> 100 µM (inactive)
same,IC50,cells,16.6 µM (active)
same,IC50,[9],> 100 µM (inactive)
same,IC50,Caspase-3,33 µM (active)
O=c1c2ccccc2nc(-c2ccc(Cl)cc2Cl)n1O,EC50,[13],> 160 µM (inactive)
same,EC50,[14],2.06 µM (active)
Cc1ccc(NC(=O)CSc2ccc3c(c2)OCCO3)c(O)c1,AC50,[10],7.27 µM (active)
same,AC50,[11],0.525 µM (active)
same,AC50,[12],0.343 µM (active)
Cc1ccc(S(C)=NS(=O)(=O)c2ccc(C)cc2)cc1 (stereo unspecified),AC50,Cytochrome P450 2C19,7.08 µM (inconclusive)
same,AC50,Cytochrome P450 2C9,inconclusive
CCc1ccccc1NC(=O)c1ccc(-n2c(C)ccc2C)cc1,AC50,Cytochrome P450 2C9,inconclusive
O=C(NC1C2CC3CC(C2)CC1C3)c1ccc(N2CCNCC2)c([N+](=O)[O-])c1 (stereo unspecified),CC50,Vero,> 25 µM (active)
O=C(C=Cc1ccccn1)c1ccccc1,CC50,Vero,9.58 µM (active)
Cc1cccc(C(=O)Nc2cccc(C(=O)N/N=C/c3ccc4c(c3)OCO4)c2)c1,IC50,[7],14.2 µM (active)
same,IC50,[8],35 µM (active)
same,IC50,[9],15.2 µM (active)
same,IC50,Caspase-3,13 µM (active)
